Assay results published in patent US20200148682A1, “AKT ISOZYME-SPECIFIC COVALENT INHIBITORS DERIVED FROM REDOX-SIGNALING LIPIDS” (Cornell University, priority 2017, published 2020).
“Also recorded” adds a separate entry of the source.

Columns and labels:
Format in all cases: cell-based
[1] = tested on: MDA-MB-468 cells; test: Cell cycle analysis using flow cytometry
Protocol: MDA-MB-468 cells in a 6-well plate at 10% confluence were treated with HNE alkyne or the indicated drug at PI60 or PI80 concentration for 72 hours at 37° C. Negative control contained the equivalent volume of DMSO. Cells were grown and analyzed in separate batches of 1-2 replicates per condition that were run 2-3 times each. Each time the data points were normalized to the control set for each batch. At the indicated time post compound treatment, the culture medium was aspirated and the adherent cells were detached from the plate using trypsin, quenched with complete media, centrifuged (700 g), washed once with PBS, centrifuged (700 g), resuspended in PBS, then fixed with 70% ethanol for 24 hours. The cell suspensions were spun down at 1,000 g and washed with 500 μl of PBS twice. Each cell pellet was treated with 500 μL staining solution containing 50 μl of Ribonuclease A (≥70 Kunitz units/mg proteins, R6513, Sigma-Aldrich) and 50 μl of a propidium iodide (1 mg/ml, Sigma-Aldrich) solution in PBS with 1% BSA. The resulting solution was incubated with agitation at room temperature for 30 min in the dark.
The stained cells were assayed on a BD LSR II flow cytometer. FlowJo® was used to deconvolute the signals. Cells were grouped first by forward and side scatter (area), then that group was regrouped using forward (width) versus forward (area) scatter to give single cells. Cells were than analyzed using cellular DNA content to quantitate the percentage of cells in the respective phases (G1, S, G2/M and sub-G0) of the cell cycle.

[2] = tested on: Akt1, Akt2, Akt3 isoforms; test: Akt isoform selectivity of covalent inhibition (in-gel fluorescence, transfected HEK293T cells)
Description: Overexpressed Akt proteins were labeled with Cy5-small-molecule-fluorophore-conjugated azide (Cy5-azide) using standard click chemistry. FIG. 16A top gel is an image showing Cy5 channel (used to evaluate the extent of covalent binding on each Akt protein). The lysate from non-transfected HEK 293T cells was also used for comparison. M, molecular weight ladder. […] FIG. 16B top gel is an image showing Cy5 channel. M is a molecular weight ladder. FIG. 16B bottom is an image showing western blots probing Halo and actin, respectively. […] Error bars designate s.d. […] Normalized fluorescent signal (NFS) was calculated from the following equation: NFS=[(Cy5(X μM drug)−Cy5(No transfection))/Halo(X μM drug)]÷[(Cy5(no drug)−Cy5(No transfection))/Halo(no drug)]. The relative fluorescent signal (RFS) is calculated from the following equation: RFS=(Cy5(X μM drug)/Halo(X μM drug)) (Cy5(no drug)/Halo(no drug))
Cell transfection with the designated plasmid encoding a given HaloTag-Akt fusion gene was carried out following the general procedure described in Example 12. After 20-24 hours, the transfection media were aspirated and replaced with fresh 2 mL rinse MEM medium supplemented with 3% FBS containing the indicated concentration of inhibitor or the equivalent final volume of DMSO and the plates were incubated for the indicated period of time. […]

[3] = biological target: T1, Halo-Akt3 (Homo sapiens, UniProt Q9Y243); test: In-gel fluorescence assay (Cy5-azide click) of covalent labeling in transfected HEK293T cells; conditions: 5 μM, 48 hours
T1 construct: expressed in transfected cells; host or cells: HEK293T
T1 sequence (Q9Y243 whole entry): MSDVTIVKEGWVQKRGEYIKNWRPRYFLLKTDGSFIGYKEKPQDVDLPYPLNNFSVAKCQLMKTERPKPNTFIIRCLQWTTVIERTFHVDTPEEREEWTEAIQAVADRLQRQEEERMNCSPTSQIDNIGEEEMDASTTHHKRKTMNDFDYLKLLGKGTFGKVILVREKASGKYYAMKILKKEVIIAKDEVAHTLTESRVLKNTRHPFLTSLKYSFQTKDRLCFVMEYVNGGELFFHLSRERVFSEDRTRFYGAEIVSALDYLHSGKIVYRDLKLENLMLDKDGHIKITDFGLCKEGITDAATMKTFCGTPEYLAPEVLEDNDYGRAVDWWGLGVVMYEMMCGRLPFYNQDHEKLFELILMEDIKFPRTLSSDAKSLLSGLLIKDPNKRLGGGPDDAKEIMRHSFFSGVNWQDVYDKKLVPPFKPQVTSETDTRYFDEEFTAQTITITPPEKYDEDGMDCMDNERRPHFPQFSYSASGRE
Protocol: HEK293T cells were transfected with Halo-Akt3 for 20 hours, then treated with the stated compound (5 μM, 48 hours). After this time, cells were lysed and the labeling was assayed by click chemistry. […] FIGS. 19A, 19C top gels are images showing in gel fluorescence, Cy5 channel. M is a molecular weight ladder. FIG. 19A, 19C lower panels are images of western blots (probing for Halo and actin, respectively) transferred from the same gel as the top image. […] FIGS. 19E-19F are graphs showing quantitation of in-gel Cy5 signal intensity, divided by the western blot signal for Halo.
Cell transfection with the designated plasmid encoding a given HaloTag-Akt fusion gene was carried out following the general procedure described in Example 12. After 20-24 hours, the transfection media were aspirated and replaced with fresh 2 mL rinse MEM medium supplemented with 3% FBS containing the indicated concentration of inhibitor or the equivalent final volume of DMSO and the plates were incubated for the indicated period of time. Cells were then harvested and lysed following the general procedure described in Examples 11 and 13. A portion of the lysate was made up to 25 μL final volume containing, in final concentrations, 5% t-BuOH, [2 mM TCEP, 1% SDS, 1 mM CuSO4, 0.1 mM Cu(TBTA), 10 μM Cy5 azide made up as a 10× stock in water] and 1.0 mg/mL lysate protein. The samples were incubated at 37° C. for 30 min and subsequently quenched with 8 μL of 4×Laemmeli dye containing 6% f ME. After an additional 5-min incubation at 37° C., samples were resolved on a 10% SDS-PAGE gel following the general procedure described in Example 14. After electrophoresis, the gel was rinsed three times with ddH2O and imaged on a Bio-Rad Chemi-doc-MP Imager. Where applicable, the gel was transferred to a PVDF membrane for western blot analysis following the general procedure described in Example 15.

[4] = tested on: BT-549; test: Cell viability assay (AlamarBlue); conditions: BT-549, 72 hours
Protocol: (§1) FIGS. 22A and 22D are graphs showing results of cytotoxicity assays for MDA-MB-468 (FIG. 22A) and BT-549 (FIG. 22D). […] Stated cell lines were plated in 96-well plates (3000 cells per well) in the presence of the stated concentration of inhibitor. After 72 hours, the number of viable cells was analyzed by AlamarBlue®. Proliferation inhibition 50% (PI50) values were calculated by fitting data to “PI50 equation” (EQN 4) (FIG. 22C). MDA cells were transfected with the stated siRNA using lipofectamine 3000 for 12 hours. […] After 72 hours, the number of viable cells was calculated using AlamarBlue®. FIG. 22F is a schematic showing AlamarBlue® viability assay. […] MDA-MB-468 cells were treated with the stated drugs for 72 hours at the PI60 and PI80. After this time, cells were harvested, fixed/permeabilized with ethanol and DNA content was stained using propidium iodide (visualized in the 488-3 channel). RNA was removed simultaneously using RNAse. After 30 min at room temperature, cells were analyzed by flow cytometry.
(§2) Indicated cells were plated in a 96-well plate containing the DMEM complete medium (see Example 11 for complete medium formulation, 100 μL per well) with a density of 3,000-5,000 cells per well for 12 hours followed by the addition of varying concentrations of inhibitors in rinse medium (100 μL). The cells were allowed to grow for 72 hours and 100 μL of the culture medium was removed from each well. This was followed by the addition of 10 μL AlamarBlue® reagent to each well. The fluorescence emission signals at 590 nm were read by Cytation 3 cell imaging multi-mode reader (BioTeK) using an excitation wavelength of 560 nm. Curve fitting and data analysis were performed using Prism software.

[5] = tested on: MDA-MB-468; test: Cell viability assay (AlamarBlue); conditions: MDA-MB-468, 72 hours
Protocol: as §1, §2

CC(C)NC[C@@H](C(=O)N1CCN(c2ncnc3c2[C@H](C)C[C@H]3O)CC1)c1ccc(Cl)cc1 [GDC-0068]
G1/G0 (percentage of cells in phase) ([1]; drug at PI60, 72 hours): 52.6 | G2/M (percentage of cells in phase) ([1]; drug at PI60, 72 hours): 28.3 | S (percentage of cells in phase) ([1]; drug at PI60, 72 hours): 12.1 | subG0 (percentage of cells in phase) ([1]; drug at PI60, 72 hours): 1.64

CCn1c(-c2nonc2N)nc2c(C#CC(C)(C)O)ncc(OC[C@H]3CCCNC3)c21 [GSK-69063]
G1/G0 (percentage of cells in phase) ([1]; drug at PI80, 72 hours): 47.7 | G2/M (percentage of cells in phase) ([1]; drug at PI80, 72 hours): 30.0 | S (percentage of cells in phase) ([1]; drug at PI80, 72 hours): 14.3 | subG0 (percentage of cells in phase) ([1]; drug at PI80, 72 hours): 0.92

C#CCCCC(O)C=CC=O (stereo not shown) [HNE alkyne]
G1/G0 (percentage of cells in phase) ([1]; drug at PI60, 72 hours): 40.0 | G2/M (percentage of cells in phase) ([1]; drug at PI60, 72 hours): 30.8 | S (percentage of cells in phase) ([1]; drug at PI60, 72 hours): 26.3 | subG0 (percentage of cells in phase) ([1]; drug at PI60, 72 hours): 3.7 | G1/G0 (percentage of cells in phase) ([1]; drug at PI80, 72 hours): 28.5 | G2/M (percentage of cells in phase) ([1]; drug at PI80, 72 hours): 22 | S (percentage of cells in phase) ([1]; drug at PI80, 72 hours): 31.3 | subG0 (percentage of cells in phase) ([1]; drug at PI80, 72 hours): 18.2

CCCCCC(O)/C=C/C=O (stereo not shown) [HNE, hydroxynonenal]
effect on cell cycle ([1]; 72 hours): S-phase arrest; also recorded: loss of G1

C#CCCCCC(O)C(=C)C(=O)NC1(c2ccc(-c3nc4ccn5c(=O)[nH]nc5c4cc3-c3ccccc3)cc2)CCC1.Cl (stereo not shown) [MK-G, 8-(4-(1-(3-Hydroxy-2-methylenenon-8-ynamido)cyclobutyl)phenyl)-3-oxo-9-phenyl-2,3-dihydro-[1,2,4]triazolo[3,4-f][1,6]naphthyridin-7-ium Chloride]
Akt isozyme selectivity of inhibition [2]: no isozyme-selective inhibition

C#CCCCC(O)CCC(=O)NC1(c2ccc(-c3nc4ccn5c(=O)[nH]nc5c4cc3-c3ccccc3)cc2)CCC1.Cl (stereo not shown) [MK-HNA, 8-(4-(1-(4-Hydroxynon-8-ynamido)cyclobutyl)phenyl)-3-oxo-9-phenyl-2,3-dihydro-[1,2,4]triazolo[3,4-f][1,6]naphthyridin-7-ium Chloride]
covalent labeling of Halo-Akt3 [3]: no covalent labeling was observed

C#CCCCC/C=C/C(=O)NC1(c2ccc(-c3nc4ccn5c(=O)[nH]nc5c4cc3-c3ccccc3)cc2)CCC1 [MK-dHNE, (E)-8-(4-(1-(Non-2-en-8-ynamido)cyclobutyl)phenyl)-3-oxo-9-phenyl-2,3-dihydro-[1,2,4]triazolo[3,4-f][1,6]naphthyridin-7-ium Chloride]
covalent labeling of Halo-Akt3 [3]: able to elicit covalent labeling | toxicity / potency relative to MK-2206 [4]: less effective than MK-2206 | toxicity / potency relative to MK-2206 [5]: less effective than MK-2206
